Assay results from publication PMC5696560 (Bioorganic & Medicinal Chemistry Letters, 2017).
≈ marks a conversion by molar mass, not a printed value.

Assays:
M.tb strain H37Rv [1] = assay: MABA: inhibition of growth of M.tb H37Rv under aerobic (replicating) conditions; assay type: cell-based; conditions: Mycobacterium tuberculosis
M.tb strain H37Rv [2] = assay: LORA: inhibition of growth of M.tb H37Rv under non-replicating conditions; assay type: cell-based; conditions: Mycobacterium tuberculosis
Experimental: The compounds were evaluated for their inhibition of growth (measured as MIC90 values in µg/mL) against M.tb (strain H37Rv) under both replicating (MABA)[16] or non-replicating (LORA)[17] conditions. […] In a search for less lipophilic analogues, we prepared and evaluated compounds where this phenyl B-ring unit was replaced with different heterocycles of varying lipophilicity (Table 1).

[3] = Oral bioavailability in rats; conditions: BioDuro LLC

## COc1nc2ccc(Br)cc2cc1[C@@H](c1ccccc1)[C@@](O)(CCN(C)C)c1cccc2ccccc12 [Compound 1, bedaquiline, reference compound]
M.tb strain H37Rv [1]; H37RV
  MIC90: 0.05 µg/mL (≈ 0.09 µM)
M.tb strain H37Rv [1]; M.tb H37Rv, replicating, read-out: MIC (MABA)
  MIC: 0.05 µM (≈ 0.0278 µg/mL)
M.tb strain H37Rv [2]
  MIC90: 0.08 µg/mL (≈ 0.144 µM)
M.tb strain H37Rv [2]; read-out: MIC (LORA)
  MIC: 0.08 µM (≈ 0.0444 µg/mL)
[3]
  F(%) oral bioavailability: 70%
